Experimental data reported in patent US10894775B2, “Piperidine derivatives as liver X receptor beta agonists, compositions, and their use” (Merck Sharp & Dohme Corp., priority 2016, dated 2021).
Where two headings read alike, the source gives them in different places.

Columns and labels:
[1] = target: T1, glutathione-S-transferase (GST) tagged LXRalpha LBD (ligand binding domain) (Homo sapiens, UniProt Q13133); assay: LanthaScreen TR-FRET Liver X Receptor Coactivator Assay, LXR alpha; type: biochemical; details: for Emax: read-out: LXR alpha actiivty at max dose (%); for EC50 / LXR alpha IP (nM): potency (Inflection Point) of compound-induced co-activator recruitment, TR-FRET; for EC50: read-out: LXR alpha IP
T1 construct: purchased Invitrogen pv4655
T1 sequence (Q13133 209-447 limits assumed): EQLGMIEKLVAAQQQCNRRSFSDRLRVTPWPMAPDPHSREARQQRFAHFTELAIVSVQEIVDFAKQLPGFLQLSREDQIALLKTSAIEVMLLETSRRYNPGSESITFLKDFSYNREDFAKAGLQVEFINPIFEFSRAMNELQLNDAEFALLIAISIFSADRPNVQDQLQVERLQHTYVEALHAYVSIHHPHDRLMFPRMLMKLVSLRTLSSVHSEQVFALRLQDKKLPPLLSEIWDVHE
Procedure, shortened: (§1)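 LXR alpha- or beta-LBD was added to test compounds, then a mix of fluorescein-labelled coactivator peptide and terbium anti-GST antibody. After room-temperature incubation, TR-FRET was read on a filter-based reader.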

[2] = target: T2, glutathione-S-transferase (GST) tagged LXRbeta LBD (ligand binding domain) (Homo sapiens, UniProt P55055); assay: LanthaScreen TR-FRET Liver X Receptor Coactivator Assay, LXR beta; type: biochemical; details: for Emax: read-out: LXR beta actiivty at max dose (%); for EC50: potency (Inflection Point) of compound-induced co-activator recruitment, TR-FRET
T2 construct: purchased Invitrogen pv4658.pps
T2 sequence (P55055 222-460 limits assumed): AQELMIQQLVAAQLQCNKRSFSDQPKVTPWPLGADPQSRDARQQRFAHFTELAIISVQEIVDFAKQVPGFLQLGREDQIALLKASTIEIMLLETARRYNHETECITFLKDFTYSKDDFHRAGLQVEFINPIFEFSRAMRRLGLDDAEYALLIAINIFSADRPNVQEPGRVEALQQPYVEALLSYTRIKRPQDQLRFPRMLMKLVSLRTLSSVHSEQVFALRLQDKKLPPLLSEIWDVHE
Procedure, shortened: as §1

[3] = efficacy (Emax) in relation to reference dual agonist T0901317

SMILES	Emax [1, 3] [%]	EC50 [1] [nM]	Emax [2, 3] [%]	EC50 ([2]; read-out: LXR beta IP) [nM]	LXR alpha IP (nM) [1]	Emax [1] [%]	EC50 ([2]; LXR beta IP (nM)) [nM]	Emax [2] [%]	LXR beta actiivty at max dose (%) [2, 3] [%]	LXR alpha actiivty at max dose (%) [1, 3] [%]
CN(C)C(=O)c1ccc(NCCC2CC3(CCN(C(=O)C(O)(c4ccccc4)C(F)(F)F)CC3)C2)cc1Cl (single isomer, unassigned) [Example 13-1, 2-chloro-N,N-dimethyl-4-(2-(7-((R or S)-3,3,3-trifluoro-2-hydroxy-2-phenylpropanoyl)-7-azaspiro[3.5]nonan-2-yl)ethylamino)benzamide]	39	321	57	6	–	–	–	–	–	–
NC(=O)c1ccc(NCCCCC2CCN(C(=O)C(O)(c3ccccc3)C(F)(F)F)CC2)cc1Cl (single isomer, unassigned) [Example 1-2, (R or S)-2-chloro-4-(4-(1-(3,3,3-trifluoro-2-hydroxy-2-phenylpropanoyl)piperidin-4-yl)butylamino)benzamide]	43	266	59	15	–	–	–	–	–	–
CN(Cc1ccc(C(=O)N(C)C)c(Cl)c1)CC1CC12CCN(C(=O)C(C)(C)c1ccccc1)CC2 (stereo not shown) [Example 14-1, 2-chloro-N,N-dimethyl-4-((methyl((6-(2-methyl-2-phenylpropanoyl)-6-azaspiro[2.5]octan-1-yl)methyl)amino)methyl)benzamide]	33	15500	99	1260	–	–	–	–	–	–
CNC(=O)c1ccc(NCCCCC2CCN(C(=O)C3(c4ccccc4)CCCC3)CC2)cc1Cl [Example 1-4, 2-chloro-N-methyl-4-(4-(1-(1-phenylcyclopentanecarbonyl)piperidin-4-yl)butylamino)benzamide]	2	–	42	183	No IP	–	–	–	–	–
CNC(=O)c1ccc(CCCCCC2CCN(C(=O)C(O)(c3ccccc3)C(F)(F)F)CC2)cc1Cl (single isomer, unassigned) [Example 15-7, (R or S)-2-chloro-N-methyl-4-(5-(1-(3,3,3-trifluoro-2-hydroxy-2-phenylpropanoyl)piperidin-4-yl)pentyl)benzamide]	40	327	93	6	–	–	–	–	–	–
CN(C)C(=O)c1ccc(NCCC2CCN(C(=O)OCc3ccccc3)CC2)cc1Cl [Example 1-13, benzyl 4-(2-(3-chloro-4-(dimethylcarbamoyl)phenylamino)ethyl)piperidine-1-carboxylate]	12	–	21	104	No IP	–	–	–	–	–
CCc1cccc(C(O)(C(=O)N2CCC(CCCCNc3ccc(C(=O)NC)c(Cl)c3)CC2)C(F)(F)F)c1 (single isomer, unassigned) [Example 1-8, (S or R)-2-chloro-4-(4-(1-(2-(3-ethylphenyl)-3,3,3-trifluoro-2-hydroxypropanoyl)piperidin-4-yl)butylamino)-N-methylbenzamide]	12	–	52	4	No IP	–	–	–	–	–
CNC(=O)c1ccc(NCCCCC2CCN(C(=O)C(O)(c3cccc(Cl)c3)C(F)(F)F)CC2)cc1Cl (single isomer, unassigned) [Example 1-5, (R or S)-2-chloro-4-(4-(1-(2-(3-chlorophenyl)-3,3,3-trifluoro-2-hydroxypropanoyl)piperidin-4-yl)butylamino)-N-methylbenzamide]	32	239	72	8	–	–	–	–	–	–
CN(C)C(=O)c1ccc(NCCC[C@@H]2CC23CCN(C(=O)[C@](O)(c2ccccc2)C(F)(F)F)CC3)cc1Cl (single isomer, unassigned) [Example 6-1, 2-chloro-N,N-dimethyl-4-(3-((R or S)-6-((R or S)-3,3,3-trifluoro-2-hydroxy-2-phenylpropanoyl)-6-azaspiro[2.5]octan-1-yl)propylamino)benzamide]	21	828	30	15	–	–	–	–	–	–
CN(C)C(=O)c1ccc(SC2CCC3(CC2)CCN(C(=O)C(O)(c2cc(Cl)cc(Cl)c2)C(F)(F)F)CC3)cc1Cl (single isomer, unassigned) [Example 19-2, 2-chloro-4-(3-((R or S)-2-(3,5-dichlorophenyl)-3,3,3-trifluoro-2-hydroxypropanoyl)-3-azaspiro[5.5]undecan-9-ylthio)-N,N-dimethylbenzamide]	8	–	74	38	No IP	–	–	–	–	–
CN(C)C(=O)c1ccc(NC[C@H]2C[C@@H]2C2CCN(C(=O)[C@](O)(c3ccccc3)C(F)(F)F)CC2)cc1Cl (single isomer, unassigned) [Example 8-2, 2-chloro-N,N-dimethyl-4-(((1S,2R or 1R,2S)-2-(1-((R or S)-3,3,3-trifluoro-2-hydroxy-2-phenylpropanoyl)piperidin-4-yl)cyclopropyl)methylamino)benzamide]	34	516	75	14	–	–	–	–	–	–
CNC(=O)c1ccc(CCCCCC2CCN(C(=O)C(O)(c3cccc(OC)c3)C(F)(F)F)CC2)cc1Cl (single isomer, unassigned) [Example 15-6, (R or S)-2-chloro-N-methyl-4-(5-(1-(3,3,3-trifluoro-2-hydroxy-2-(3-methoxyphenyl)propanoyl)piperidin-4-yl)pentyl)benzamide]	27	381	96	6	–	–	–	–	–	–
CN(C)C(=O)c1ccc(NCCC[C@H]2CC23CCN(C(=O)[C@](O)(c2ccccc2)C(F)(F)F)CC3)nc1Cl (single isomer, unassigned) [Example 6-3, 2-chloro-N,N-dimethyl-6-(3-((S or R)-6-((R or S)-3,3,3-trifluoro-2-hydroxy-2-phenylpropanoyl)-6-azaspiro[2.5]octan-1-yl)propylamino)nicotin-amide]	24	1400	49	14	–	–	–	–	–	–
CN(C)C(=O)c1ccc(S(=O)(=O)C2CCC3(CC2)CCN(C(=O)C(O)(c2cc(Cl)cc(Cl)c2)C(F)(F)F)CC3)cc1Cl (single isomer, unassigned) [Example 21-1, 2-chloro-4-(3-((R or S)-2-(3,5-dichlorophenyl)-3,3,3-trifluoro-2-hydroxypropanoyl)-3-azaspiro[5.5]undecan-9-ylsulfonyl)-N,N-dimethylbenzamide]	–	–	–	–	No IP	0	1460	50	–	–
COc1cccc([C@@](O)(C(=O)N2CCC(CC3CC(Nc4ccc(C(=O)N(C)C)c(Cl)c4)C3)CC2)C(F)(F)F)c1 (single isomer, unassigned) [Example 11-1, 2-chloro-N,N-dimethyl-4-((1R,3s)-3-((1-((R or S)-3,3,3-trifluoro-2-hydroxy-2-(3-methoxyphenyl)propanoyl)piperidin-4-yl)methyl)cyclobutylamino)benzamide]	–	–	–	8	No IP	12	–	85	–	–
CN(C)C(=O)c1ccc(CCCC2CC3(CCN(C(=O)C(O)(c4ccccc4)C(F)(F)F)CC3)C2)cc1Cl (single isomer, unassigned) [Example 16-2, 2-chloro-N,N-dimethyl-4-(3-(7-((R or S)-3,3,3-trifluoro-2-hydroxy-2-phenylpropanoyl)-7-azaspiro[3.5]nonan-2-yl)propyl)benzamide]	29	772	113	59	–	–	–	–	–	–
CN(C)C(=O)c1ccc(CCCCC2CCN(C(=O)C(O)(c3ccccc3)C(F)(F)F)CC2)cc1Cl (single isomer, unassigned) [Example 15-2, (R or S)-2-chloro-N,N-dimethyl-4-(4-(1-(3,3,3-trifluoro-2-hydroxy-2-phenylpropanoyl)piperidin-4-yl)butyl)benzamide]	20	623	–	28	–	–	–	–	95	–
CC(CCCC1CCN(C(=O)[C@](O)(c2ccccc2)C(F)(F)F)CC1)Nc1ccc(C(=O)N(C)C)c(Cl)c1 (single isomer, unassigned) [Example 4-3, 2-chloro-N,N-dimethyl-4-((S or R)-5-(1-((R or S)-3,3,3-trifluoro-2-hydroxy-2-phenylpropanoyl)piperidin-4-yl)pentan-2-ylamino)benzamide]	–	653	79	15	–	–	–	–	–	35
CNC(=O)c1ccc(NCCCCC2CCN(C(=O)C(O)(c3cccc(OC)c3)C(F)(F)F)CC2)cc1F (single isomer, unassigned) [Example 1-6, (R or S)-2-fluoro-N-methyl-4-(4-(1-(3,3,3-trifluoro-2-hydroxy-2-(3-methoxyphenyl)propanoyl)piperidin-4-yl)butylamino)benzamide]	16	3300	63	102	–	–	–	–	–	–
